Literature values as cited in US5583105A, “Oral pharmaceutical preparation” (Biogal Gyogyszerguar Rt, priority 1994, dated 1996).

Settings: in water

## CCOC(=O)CC(O)(CC(=O)OCC)C(=O)OCC [triethylcitrate, triethyl-citrate]
  concentration of aqueous solution formed: 6.5%
